Reference: patent US9221795B2, “Phosphatidylinositol 3-kinase inhibitors” (Gilead Sciences, Inc., priority 2013, dated 2015)

The compounds below were run against PI3Kδ (Homo sapiens (Human), UniProt O00329) (assay: Enzymatic activity of PI3K isoforms, TR-FRET assay (PI3Kδ)). Settings: 2× Km ATP, geometric mean if more than one value.
Format: biochemical
Procedure: Enzymatic activity of the class I PI3K isoforms in the presence of the compounds of Table 1 and Compounds X, Y and Z was measured using a time-resolved fluorescence resonance energy transfer (TR-FRET) assay. The TR-FRET assay was used to monitor formation of the product 3,4,5-inositol triphosphate molecule (PIP3) as it competed with fluorescently labeled PIP3 for binding to the GRP-1 pleckstrin homology domain protein. An increase in […] product results in a decrease in TR-FRET signal as the labeled fluorophore is displaced from the GRP-1 protein binding site.
Class I PI3K isoforms were expressed and purified as heterodimeric recombinant proteins. All assay reagents and buffers for the TR-FRET assay were purchased from Millipore. PI3K isoforms were assayed under initial rate conditions in the presence of 25 mM Hepes (pH 7.4), and 2× Km ATP (75-500 μM), 2 μM PIP2, 5% glycerol, 5 mM MgCl2, 50 mM NaCl, 0.05% (v/v) Chaps, 1 mM dithiothreitol, 1% (v/v) DMSO at the following concentrations for each isoforms: PI3Kα, PI3Kβ, and PI3Kδ between 25 and 50 pM, and PI3Kγ at 2 nM. After an assay reaction time of 30 minutes at 25° C., reactions were terminated with a final concentration of 10 mM EDTA, 10 nM labeled-PIP3, and 35 nM Europium labeled GRP-1 detector protein before reading TR-FRET on an Envision plate reader (Ex: 340 nm; Em: 615/665 nm; […] delay and 500 μs read window).
Data were normalized based on positive ([…] wortmanin) and negative (DMSO) controls. α, β, δ, and γ IC50 values were calculated from the fit of the dose-response curves to a four-parameter equation. All IC50 values represent geometric mean values if more than one value was obtained. IC50 values were reported in units of nM.

PI3Kδ, sequence (O00329 whole entry, canonical isoform): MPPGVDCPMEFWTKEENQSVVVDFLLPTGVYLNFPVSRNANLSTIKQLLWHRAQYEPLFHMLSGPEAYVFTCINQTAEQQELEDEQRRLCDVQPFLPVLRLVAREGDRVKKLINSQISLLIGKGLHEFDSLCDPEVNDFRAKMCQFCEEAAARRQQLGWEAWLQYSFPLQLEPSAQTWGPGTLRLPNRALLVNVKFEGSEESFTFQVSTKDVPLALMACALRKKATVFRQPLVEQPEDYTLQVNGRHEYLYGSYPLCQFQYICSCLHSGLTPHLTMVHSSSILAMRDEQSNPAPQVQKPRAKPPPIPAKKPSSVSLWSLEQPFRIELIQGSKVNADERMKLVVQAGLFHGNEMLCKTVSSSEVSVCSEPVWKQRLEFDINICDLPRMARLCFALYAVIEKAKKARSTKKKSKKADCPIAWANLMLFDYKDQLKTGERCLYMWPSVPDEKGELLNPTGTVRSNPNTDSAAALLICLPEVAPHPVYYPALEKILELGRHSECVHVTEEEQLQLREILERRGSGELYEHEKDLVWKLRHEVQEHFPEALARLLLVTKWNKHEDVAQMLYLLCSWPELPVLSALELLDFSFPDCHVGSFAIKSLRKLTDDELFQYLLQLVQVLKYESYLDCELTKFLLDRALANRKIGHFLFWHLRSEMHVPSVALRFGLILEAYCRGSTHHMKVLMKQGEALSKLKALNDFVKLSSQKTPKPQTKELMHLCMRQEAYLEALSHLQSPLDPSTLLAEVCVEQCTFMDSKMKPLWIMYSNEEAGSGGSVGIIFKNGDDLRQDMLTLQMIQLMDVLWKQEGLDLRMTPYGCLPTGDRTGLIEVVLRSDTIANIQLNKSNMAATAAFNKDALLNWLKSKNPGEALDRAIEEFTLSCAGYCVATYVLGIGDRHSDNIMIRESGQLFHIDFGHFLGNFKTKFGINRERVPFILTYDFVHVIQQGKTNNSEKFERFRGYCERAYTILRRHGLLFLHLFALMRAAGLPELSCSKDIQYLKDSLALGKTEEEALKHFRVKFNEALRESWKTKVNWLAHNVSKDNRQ
PI3Kδ, sequence (P27986 whole entry partner, canonical isoform): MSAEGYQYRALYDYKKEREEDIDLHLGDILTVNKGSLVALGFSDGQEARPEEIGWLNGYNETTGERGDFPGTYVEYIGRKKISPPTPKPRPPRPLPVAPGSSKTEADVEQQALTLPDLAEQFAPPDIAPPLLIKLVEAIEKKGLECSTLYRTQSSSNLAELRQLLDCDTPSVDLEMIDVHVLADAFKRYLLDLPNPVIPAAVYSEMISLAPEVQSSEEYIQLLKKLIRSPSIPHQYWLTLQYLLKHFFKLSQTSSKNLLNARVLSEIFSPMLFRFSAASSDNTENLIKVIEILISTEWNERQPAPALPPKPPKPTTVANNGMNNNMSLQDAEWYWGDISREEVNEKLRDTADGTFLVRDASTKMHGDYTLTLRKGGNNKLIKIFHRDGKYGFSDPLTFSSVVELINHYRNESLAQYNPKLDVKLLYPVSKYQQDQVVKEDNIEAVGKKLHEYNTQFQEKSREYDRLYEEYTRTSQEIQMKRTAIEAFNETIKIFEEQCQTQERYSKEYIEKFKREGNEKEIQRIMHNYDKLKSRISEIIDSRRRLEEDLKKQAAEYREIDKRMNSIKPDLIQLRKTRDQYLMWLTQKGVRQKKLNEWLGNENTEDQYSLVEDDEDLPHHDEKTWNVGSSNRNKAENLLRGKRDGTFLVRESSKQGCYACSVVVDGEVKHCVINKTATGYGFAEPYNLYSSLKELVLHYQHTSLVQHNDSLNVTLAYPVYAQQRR

Q: Which IC50 does the source give for `Cc1ncc(F)cc1-n1c([C@H](C)Nc2nc(N)nc(N)c2C#N)nc2cccc(Cl)c2c1=O` (atropisomer, axis not shown) [Compound 44, (S)-2,4-diamino-6-(1-(5-chloro-3-(5-fluoro-2-methylpyridin-3-yl)-4-oxo-3,4-dihydroquinazolin-2-yl)ethylamino)pyrimidine-5-carbonitrile] here?
A: 34 nM

Q: Which IC50 does the source give for `Cc1c(F)cncc1-n1c([C@@H](Nc2nc(N)nc(N)c2C#N)C2CC2)nc2c(F)ccc(Cl)c2c1=O` (atropisomer, axis not shown) [Compound 65, (S)-2,4-Diamino-6-(((5-chloro-8-fluoro-3-(5-fluoro-4-methylpyridin-3-yl)-4-oxo-3,4-dihydroquinazolin-2-yl)(cyclopropyl)methyl)amino)pyrimidine-5-carbonitrile] here?
A: 42 nM

Q: For `Cc1c(F)cncc1-n1c([C@@H](Nc2nc(N)nc(N)c2C#N)C2CC2)nc2c(F)ccc(Cl)c2c1=O` (atropisomer, axis not shown) [Compound 66, (S)-2,4-Diamino-6-(((5-chloro-8-fluoro-3-(5-fluoro-4-methylpyridin-3-yl)-4-oxo-3,4-dihydroquinazolin-2-yl)(cyclopropyl)methyl)amino)pyrimidine-5-carbonitrile], which IC50 is on record?
A: 3 nM

Q: For `Cc1c(F)cncc1-n1c([C@H](C)Nc2nc(N)nc(N)c2C#N)nc2cccc(F)c2c1=O` (atropisomer, axis not shown) [Compound 67, (S)-2,4-diamino-6-((1-(5-fluoro-3-(5-fluoro-4-methylpyridin-3-yl)-4-oxo-3,4-dihydroquinazolin-2-yl)ethyl)amino)pyrimidine-5-carbonitrile], which IC50 is on record?
A: 120 nM

Q: Which IC50 does the source give for `Cc1c(F)cncc1-n1c([C@H](C)Nc2nc(N)nc(N)c2C#N)nc2cccc(F)c2c1=O` (atropisomer, axis not shown) [Compound 68, (S)-2,4-diamino-6-((1-(5-fluoro-3-(5-fluoro-4-methylpyridin-3-yl)-4-oxo-3,4-dihydroquinazolin-2-yl)ethyl)amino)pyrimidine-5-carbonitrile] here?
A: 7 nM

Q: Which IC50 does the source give for `Cc1c(F)cncc1-n1c([C@@H](Nc2nc(N)nc(N)c2C#N)C2CC2)nc2cccc(Cl)c2c1=O` (atropisomer, axis not shown) [Compound 69, (S)-2,4-diamino-6-(((5-chloro-3-(5-fluoro-4-methylpyridin-3-yl)-4-oxo-3,4-dihydroquinazolin-2-yl)(cyclopropyl)methyl)amino)pyrimidine-5-carbonitrile] here?
A: 60 nM

Q: For `Cc1c(F)cncc1-n1c([C@@H](Nc2nc(N)nc(N)c2C#N)C2CC2)nc2cccc(Cl)c2c1=O` (atropisomer, axis not shown) [Compound 70, (S)-2,4-diamino-6-(((5-chloro-3-(5-fluoro-4-methylpyridin-3-yl)-4-oxo-3,4-dihydroquinazolin-2-yl)(cyclopropyl)methyl)amino)pyrimidine-5-carbonitrile], which IC50 is on record?
A: 3 nM

Q: Which IC50 does the source give for `CC[C@H](Nc1nc(N)nc(N)c1C#N)c1nc2cccc(Cl)c2c(=O)n1-c1cncc(F)c1C` (atropisomer, axis not shown) [Compound 71, (S)-2,4-diamino-6-((1-(5-chloro-3-(5-fluoro-4-methylpyridin-3-yl)-4-oxo-3,4-dihydroquinazolin-2-yl)propyl)amino)pyrimidine-5-carbonitrile] here?
A: 49 nM

Q: Which IC50 does the source give for `CC[C@H](Nc1nc(N)nc(N)c1C#N)c1nc2cccc(Cl)c2c(=O)n1-c1cncc(F)c1C` (atropisomer, axis not shown) [Compound 72, (S)-2,4-diamino-6-((1-(5-chloro-3-(5-fluoro-4-methylpyridin-3-yl)-4-oxo-3,4-dihydroquinazolin-2-yl)propyl)amino)pyrimidine-5-carbonitrile] here?
A: 1 nM

Q: How did the IC50 turn out when `Cc1c(F)cncc1-n1c([C@H](C)Nc2nc(N)nc(N)c2C#N)nc2c(F)ccc(Cl)c2c1=O` (atropisomer, axis not shown) [Compound 73, (S)-2,4-diamino-6-((1-(5-chloro-8-fluoro-3-(5-fluoro-4-methylpyridin-3-yl)-4-oxo-3,4-dihydroquinazolin-2-yl)ethyl)amino)pyrimidine-5-carbonitrile] was run?
A: 59 nM

Q: How did the IC50 turn out when `Cc1c(F)cncc1-n1c([C@H](C)Nc2nc(N)nc(N)c2C#N)nc2c(F)ccc(Cl)c2c1=O` (atropisomer, axis not shown) [Compound 74, (S)-2,4-diamino-6-((1-(5-chloro-8-fluoro-3-(5-fluoro-4-methylpyridin-3-yl)-4-oxo-3,4-dihydroquinazolin-2-yl)ethyl)amino)pyrimidine-5-carbonitrile] was run?
A: 1 nM

Q: Which IC50 does the source give for `Cc1c(F)cncc1-n1c([C@H](C)Nc2nc(N)nc(N)c2C#N)nc2ccc(F)cc2c1=O` (atropisomer, axis not shown) [Compound 75, (S)-2,4-diamino-6-((1-(6-fluoro-3-(5-fluoro-4-methylpyridin-3-yl)-4-oxo-3,4-dihydroquinazolin-2-yl)ethyl)amino)pyrimidine-5-carbonitrile] here?
A: 510 nM

Q: With `Cc1c(F)cncc1-n1c([C@H](C)Nc2nc(N)nc(N)c2C#N)nc2ccc(F)cc2c1=O` (atropisomer, axis not shown) [Compound 76, (S)-2,4-diamino-6-((1-(6-fluoro-3-(5-fluoro-4-methylpyridin-3-yl)-4-oxo-3,4-dihydroquinazolin-2-yl)ethyl)amino)pyrimidine-5-carbonitrile] as the compound, how does the IC50 read?
A: 14 nM

Q: Which IC50 does the source give for `Cc1cncc(-n2c([C@H](C)Nc3nc(N)nc(N)c3C#N)nc3cccc(Cl)c3c2=O)c1C` (atropisomer, axis not shown) [Compound 77, (S)-2,4-diamino-6-((1-(5-chloro-3-(4,5-dimethylpyridin-3-yl)-4-oxo-3,4-dihydroquinazolin-2-yl)ethyl)amino)pyrimidine-5-carbonitrile] here?
A: 75 nM

Q: How did the IC50 turn out when `Cc1cncc(-n2c([C@H](C)Nc3nc(N)nc(N)c3C#N)nc3cccc(Cl)c3c2=O)c1C` (atropisomer, axis not shown) [Compound 78, (S)-2,4-diamino-6-((1-(5-chloro-3-(4,5-dimethylpyridin-3-yl)-4-oxo-3,4-dihydroquinazolin-2-yl)ethyl)amino)pyrimidine-5-carbonitrile] was run?
A: 0.8 nM

Q: `Cc1ccncc1-n1c([C@H](C)Nc2nc(N)nc(N)c2C#N)nc2cccc(C(F)(F)F)c2c1=O` (atropisomer, axis not shown) [Compound 79, (S)-2,4-Diamino-6-((1-(3-(4-methylpyridin-3-yl)-4-oxo-5-(trifluoromethyl)-3,4-dihydroquinazolin-2-yl)ethyl)amino)pyrimidine-5-carbonitrile] was tested. Which IC50 did it give?
A: 2 nM

Q: `Cc1ccncc1-n1c([C@H](C)Nc2nc(N)nc(N)c2C#N)nc2cccc(C(F)(F)F)c2c1=O` (atropisomer, axis not shown) [Compound 80, (S)-2,4-Diamino-6-((1-(3-(4-methylpyridin-3-yl)-4-oxo-5-(trifluoromethyl)-3,4-dihydroquinazolin-2-yl)ethyl)amino)pyrimidine-5-carbonitrile] was tested. Which IC50 did it give?
A: 27 nM

Q: How did the IC50 turn out when `Cc1c(F)cncc1-n1c([C@@H](C)Nc2nc(N)nc(N)c2C#N)nc2cccc(Cl)c2c1=O` (atropisomer, axis not shown) [Compound 114, (R)-2,4-diamino-6-((1-(5-chloro-3-(5-fluoro-4-methylpyridin-3-yl)-4-oxo-3,4-dihydroquinazolin-2-yl)ethyl)amino)pyrimidine-5-carbonitrile] was run?
A: 220 nM

Q: For `Cc1c(F)cncc1-n1c([C@@H](C)Nc2nc(N)nc(N)c2C#N)nc2cccc(Cl)c2c1=O` (atropisomer, axis not shown) [Compound 115, (R)-2,4-diamino-6-((1-(5-chloro-3-(5-fluoro-4-methylpyridin-3-yl)-4-oxo-3,4-dihydroquinazolin-2-yl)ethyl)amino)pyrimidine-5-carbonitrile], which IC50 is on record?
A: 4 nM

Q: How did the IC50 turn out when `C[C@H](Nc1nc(N)nc(N)c1Cl)c1nc2cccc(S(C)(=O)=O)c2c(=O)n1-c1cccnc1` [Compound 49, (S)-2-(1-((2,6-diamino-5-chloropyrimidin-4-yl)amino)ethyl)-5-(methylsulfonyl)-3-(pyridin-3-yl)quinazolin-4(3H)-one] was run?
A: 67 nM

Q: With `C[C@H](Nc1nc(N)nc(N)c1C(N)=O)c1nc2cccc(Cl)c2c(=O)n1-c1cccnc1` [Compound 50, (S)-2,4-Diamino-6-((1-(5-chloro-4-oxo-3-(pyridin-3-yl)-3,4-dihydroquinazolin-2-yl)ethyl)amino)pyrimidine-5-carboxamide] as the compound, how does the IC50 read?
A: 2 nM

Q: For `C[C@H](Nc1nc(N)nc(N)c1Cl)c1nc2cccc(Cl)c2c(=O)n1-c1cncc(F)c1` [Compound 51, (S)-5-Chloro-2-(1-((2,6-diamino-5-chloropyrimidin-4-yl)amino)ethyl)-3-(5-fluoropyridin-3-yl)quinazolin-4(3h)-one], which IC50 is on record?
A: 7 nM

Q: How did the IC50 turn out when `C[C@H](Nc1nc(N)nc(N)c1Cl)c1nc2cccc(F)c2c(=O)n1-c1cccnc1` [Compound 52, (S)-2-(1-((2,6-Diamino-5-chloropyrimidin-4-yl)amino)ethyl)-5-fluoro-3-(pyridin-3-yl)quinazolin-4(3H)-one] was run?
A: 63 nM
